12 molecules from article PMC7531004, “Discovery of gramicidin A analogues with altered activities by multidimensional screening of a one-bead-one-compound library” (Nature Communications, 2020) can be followed below.

For series [1] the following is noted: cell viability/%. The essentials:
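First, library peptide stocks are diluted 250-fold in RPMI1640 with 10% heat-inactivated FBS. Next, they are mixed with P388 cells to give 1 × 10^4 cells/mL and incubated 92 h at 37 °C, 5% CO2. Finally, viability (%) is scored by WST-1 absorbance at 415 nm.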

For series [2], the system named is Streptococcus pyogenes SSI-9. Description: Antibacterial activity assay of bead-derived peptides (three concentrations). Format: cell-based. On the set-up: key: +++: inhibition by the 640-fold diluted peptide solution; ++: inhibition by the 160-fold diluted solution; +: inhibition by the 40-fold diluted solution; -: no inhibition. As to conditions: S. pyogenes, bead-derived peptide solution, three concentrations. In a few lines:
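Three stock dilutions per peptide (none, 4-fold, 16-fold in DMSO) are screened in 96-well format. The medium is blood-supplemented cation-adjusted MHB, inoculated with 2 × 10^5 CFU S. pyogenes SSI-9. Growth is read as cell precipitation at 18 h, 37 °C.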

A short description of series [3]: H+/Na+ transport assay of bead-derived peptides (one-point).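 Also: relative to parent gramicidin A activity set to 1.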 Format: biochemical. On the set-up: key: relative activity; mean of two control wells = 1.00. The note with it: bead-derived peptide solution, EYPC/EYPG LUVs. In a few lines:
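H+/Na+ transport is monitored through pyranine fluorescence in freshly extruded LUVs after a 30-min room-temperature vortex with each library peptide at a single concentration. Signals are normalized to detergent (Triton X-100) and untreated controls.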

Where a SMILES comes first, the peptide text is derived from it. [ ]: non-standard residue; d: D form. The star is where a group is joined. NHCH2CH2OH = OCCN*; For = O=C*

For `CC(C)C[C@@H](NC(=O)[C@H](Cc1c[nH]c2ccccc12)NC(=O)[C@H](NC(=O)[C@H](Cc1c[nH]c2ccccc12)NC(=O)[C@@H](CC(C)C)NC(=O)[C@H](Cc1c[nH]c2ccccc12)NC(=O)[C@@H](CC(C)C)NC(=O)[C@@H](NC(=O)[C@H](NC(=O)[C@H](C)NC(=O)[C@H](NC(=O)[C@H](C)NC(=O)CNC(=O)[C@@H](NC=O)C(C)C)[C@H](C)O)C(C)C)C(C)C)C(C)C)C(=O)N[C@@H](Cc1c[nH]c2ccccc12)C(=O)NCCO` [compound 1509] (For-VGA[dT]A[dV]V[dL]W[dL]W[dV]W[dL]W-NHCH2CH2OH), in series [1], the viability is 100%. The antibacterial activity entry in series [2] was “-”. Moreover, the “H+/Na+ transport activity normalized against the value of 1 (1.00)” value (“H+/Na+ transport activity normalized” below) in series [3] was 1.10.

In series [1], `CNC(=O)C[C@@H](NC(=O)[C@H](C)NC(=O)CNC(=O)[C@@H](NC=O)C(C)C)C(=O)N[C@@H](C)C(=O)N[C@@H](C(=O)N[C@H](C(=O)N[C@@H](C(=O)N[C@@H](Cc1c[nH]c2ccccc12)C(=O)N[C@H](CC(C)C)C(=O)N[C@@H](Cc1c[nH]c2ccccc12)C(=O)N[C@H](CC(C)C)C(=O)N[C@@H](Cc1c[nH]c2ccccc12)C(=O)N[C@H](CC(C)C)C(=O)N[C@@H](Cc1c[nH]c2ccccc12)C(=O)NCCO)C(C)C)C(C)C)C(C)C` [compound 10673] (For-VGA[dD](NHMe)A[dV]V[dV]W[dL]W[dL]W[dL]W-NHCH2CH2OH) showed a viability of 97.7%. Besides, the antibacterial activity result in series [2] is “-”. The “H+/Na+ transport activity normalized” value in series [3] is reported as 1.01.

In series [1], `CNC(=O)C[C@@H](NC(=O)[C@H](Cc1c[nH]c2ccccc12)NC(=O)[C@@H](CC(C)C)NC(=O)[C@H](Cc1c[nH]c2ccccc12)NC(=O)[C@@H](CC(C)C)NC(=O)[C@@H](NC(=O)[C@@H](CC(C)C)NC(=O)[C@H](C)NC(=O)[C@@H](CC(C)C)NC(=O)[C@H](C)NC(=O)CNC(=O)[C@@H](NC=O)C(C)C)C(C)C)C(=O)N[C@@H](Cc1c[nH]c2ccccc12)C(=O)N[C@@H](C(=O)N[C@@H](Cc1c[nH]c2ccccc12)C(=O)NCCO)[C@H](C)O` [compound 3773] (For-VGA[dL]A[dL]V[dL]W[dL]W[dD](NHMe)W[dT]W-NHCH2CH2OH) came in with a viability of 100%. Also, the antibacterial activity result in series [2] is given as “-”. In series [3], the “H+/Na+ transport activity normalized” value stood at 1.03.

In the case of `CNC(=O)C[C@@H](NC(=O)[C@@H](NC(=O)[C@@H](CC(C)C)NC(=O)[C@H](C)NC(=O)[C@H](NC(=O)[C@H](C)NC(=O)CNC(=O)[C@@H](NC=O)C(C)C)C(C)C)C(C)C)C(=O)N[C@@H](Cc1c[nH]c2ccccc12)C(=O)N[C@@H](C(=O)N[C@@H](Cc1c[nH]c2ccccc12)C(=O)N[C@H](CC(C)C)C(=O)N[C@@H](Cc1c[nH]c2ccccc12)C(=O)N[C@H](CC(C)C)C(=O)N[C@@H](Cc1c[nH]c2ccccc12)C(=O)NCCO)C(C)C` [compound 603] (For-VGA[dV]A[dL]V[dD](NHMe)W[dV]W[dL]W[dL]W-NHCH2CH2OH), the viability in series [1] is 100%. In addition, the antibacterial activity entry in series [2] is on record as “-”. Moreover, in series [3], the “H+/Na+ transport activity normalized” value was 1.10.

For `CC(C)C[C@@H](NC(=O)[C@H](Cc1c[nH]c2ccccc12)NC(=O)[C@H](NC(=O)[C@@H](NC(=O)[C@H](NC(=O)[C@H](C)NC(=O)[C@H](NC(=O)[C@H](C)NC(=O)CNC(=O)[C@@H](NC=O)C(C)C)C(C)C)C(C)C)C(C)C)C(C)C)C(=O)N[C@@H](Cc1c[nH]c2ccccc12)C(=O)N[C@H](CC(C)C)C(=O)N[C@@H](Cc1c[nH]c2ccccc12)C(=O)N[C@@H](C(=O)N[C@@H](Cc1c[nH]c2ccccc12)C(=O)NCCO)C(C)C` [compound 5742] (For-VGA[dV]A[dV]V[dV]W[dL]W[dL]W[dV]W-NHCH2CH2OH), the viability in series [1] was 11.1%. In addition, in series [2], the antibacterial activity result was “++”. Further, the “H+/Na+ transport activity normalized” value in series [3] is given as 1.16.

Take `CC(C)C[C@@H](NC(=O)[C@H](Cc1c[nH]c2ccccc12)NC(=O)[C@@H](CC(C)C)NC(=O)[C@H](Cc1c[nH]c2ccccc12)NC(=O)[C@H](NC(=O)[C@H](Cc1c[nH]c2ccccc12)NC(=O)[C@H](NC(=O)[C@@H](NC(=O)[C@H](NC(=O)[C@H](C)NC(=O)[C@H](NC(=O)[C@H](C)NC(=O)CNC(=O)[C@@H](NC=O)C(C)C)C(C)C)C(C)C)C(C)C)[C@H](C)O)[C@H](C)O)C(=O)N[C@@H](Cc1c[nH]c2ccccc12)C(=O)NCCO` [compound 12293] (For-VGA[dV]A[dV]V[dT]W[dT]W[dL]W[dL]W-NHCH2CH2OH): the viability in series [1] stood at 100%. Also, in series [2], the antibacterial activity entry is “-”. Besides, the “H+/Na+ transport activity normalized” value in series [3] amounted to 1.00.

On to `CC(C)C[C@@H](NC(=O)[C@H](Cc1c[nH]c2ccccc12)NC(=O)[C@H](NC(=O)[C@H](Cc1c[nH]c2ccccc12)NC(=O)[C@@H](CC(C)C)NC(=O)[C@H](Cc1c[nH]c2ccccc12)NC(=O)[C@H](NC(=O)[C@@H](NC(=O)[C@H](NC(=O)[C@H](C)NC(=O)[C@H](NC(=O)[C@H](C)NC(=O)CNC(=O)[C@@H](NC=O)C(C)C)C(C)C)[C@H](C)O)C(C)C)C(C)C)C(C)C)C(=O)N[C@@H](Cc1c[nH]c2ccccc12)C(=O)NCCO` [compound 7912] (For-VGA[dV]A[dT]V[dV]W[dL]W[dV]W[dL]W-NHCH2CH2OH), for which, in series [1], the viability stood at 100%. The antibacterial activity entry in series [2] is given as “-”. Further, the “H+/Na+ transport activity normalized” value in series [3] turned out to be 1.12.

In the case of `CC(C)C[C@@H](NC(=O)[C@H](Cc1c[nH]c2ccccc12)NC(=O)[C@H](NC(=O)[C@@H](NC(=O)[C@H](NC(=O)[C@H](C)NC(=O)[C@H](NC(=O)[C@H](C)NC(=O)CNC(=O)[C@@H](NC=O)C(C)C)C(C)C)[C@H](C)O)C(C)C)C(C)C)C(=O)N[C@@H](Cc1c[nH]c2ccccc12)C(=O)N[C@@H](C(=O)N[C@@H](Cc1c[nH]c2ccccc12)C(=O)N[C@@H](C(=O)N[C@@H](Cc1c[nH]c2ccccc12)C(=O)NCCO)C(C)C)C(C)C` [compound 9055] (For-VGA[dV]A[dT]V[dV]W[dL]W[dV]W[dV]W-NHCH2CH2OH), the viability in series [1] is 83.5%. For the same molecule, the antibacterial activity result in series [2] is given as “-”. In addition, the “H+/Na+ transport activity normalized” value in series [3] was determined as 1.01.

For `CC(C)C[C@@H](NC(=O)[C@H](C)NC(=O)[C@H](NC(=O)[C@H](C)NC(=O)CNC(=O)[C@@H](NC=O)C(C)C)C(C)C)C(=O)N[C@H](C(=O)N[C@H](CC(C)C)C(=O)N[C@@H](Cc1c[nH]c2ccccc12)C(=O)N[C@H](CC(C)C)C(=O)N[C@@H](Cc1c[nH]c2ccccc12)C(=O)N[C@@H](C(=O)N[C@@H](Cc1c[nH]c2ccccc12)C(=O)N[C@@H](C(=O)N[C@@H](Cc1c[nH]c2ccccc12)C(=O)NCCO)C(C)C)C(C)C)C(C)C` [compound 9247] (For-VGA[dV]A[dL]V[dL]W[dL]W[dV]W[dV]W-NHCH2CH2OH), the viability in series [1] worked out at 6%. Moreover, the antibacterial activity result in series [2] was “+”. Also, the “H+/Na+ transport activity normalized” value in series [3] is recorded as 1.02.

The molecule `CC(C)C[C@@H](NC(=O)[C@H](C)NC(=O)CNC(=O)[C@@H](NC=O)C(C)C)C(=O)N[C@@H](C)C(=O)N[C@@H](C(=O)N[C@H](C(=O)N[C@H](CC(C)C)C(=O)N[C@@H](Cc1c[nH]c2ccccc12)C(=O)N[C@@H](C(=O)N[C@@H](Cc1c[nH]c2ccccc12)C(=O)N[C@@H](C(=O)N[C@@H](Cc1c[nH]c2ccccc12)C(=O)N[C@H](CC(C)C)C(=O)N[C@@H](Cc1c[nH]c2ccccc12)C(=O)NCCO)[C@H](C)O)C(C)C)C(C)C)C(C)C` [compound 201] (For-VGA[dL]A[dV]V[dL]W[dV]W[dT]W[dL]W-NHCH2CH2OH) registered a viability in series [1] of 100%. Also, in series [2], the antibacterial activity entry is reported as “-”. In addition, the “H+/Na+ transport activity normalized” value in series [3] was 1.06.

In series [1], `CC(C)C[C@@H](NC(=O)[C@H](Cc1c[nH]c2ccccc12)NC(=O)[C@H](NC(=O)[C@@H](NC(=O)[C@H](NC(=O)[C@H](C)NC(=O)[C@H](NC(=O)[C@H](C)NC(=O)CNC(=O)[C@@H](NC=O)C(C)C)C(C)C)[C@H](C)O)C(C)C)C(C)C)C(=O)N[C@@H](Cc1c[nH]c2ccccc12)C(=O)N[C@H](CC(C)C)C(=O)N[C@@H](Cc1c[nH]c2ccccc12)C(=O)N[C@@H](C(=O)N[C@@H](Cc1c[nH]c2ccccc12)C(=O)NCCO)C(C)C` [compound 8141] (For-VGA[dV]A[dT]V[dV]W[dL]W[dL]W[dV]W-NHCH2CH2OH) showed a viability of 100%. Moreover, in series [2], the antibacterial activity entry is on record as “-”. In addition, the “H+/Na+ transport activity normalized” value in series [3] came to 1.03.

As for `CNC(=O)C[C@@H](NC(=O)[C@H](Cc1c[nH]c2ccccc12)NC(=O)[C@H](NC(=O)[C@H](Cc1c[nH]c2ccccc12)NC(=O)[C@H](NC(=O)[C@H](Cc1c[nH]c2ccccc12)NC(=O)[C@H](NC(=O)[C@@H](NC(=O)[C@H](NC(=O)[C@H](C)NC(=O)[C@@H](CC(C)C)NC(=O)[C@H](C)NC(=O)CNC(=O)[C@@H](NC=O)C(C)C)C(C)C)C(C)C)C(C)C)C(C)C)C(C)C)C(=O)N[C@@H](Cc1c[nH]c2ccccc12)C(=O)NCCO` [compound 362] (For-VGA[dL]A[dV]V[dV]W[dV]W[dV]W[dD](NHMe)W-NHCH2CH2OH), the viability in series [1] came to 100%. Besides, the antibacterial activity entry in series [2] is given as “-”. Further, in series [3], the “H+/Na+ transport activity normalized” value is given as 1.05.

As a reminder, the viability is a per cent measure of how many cells are alive, often set against a control.
